Legend:
human autotaxin = human autotaxin (Homo sapiens (Human), UniProt Q13822); experiment: Human Autotaxin Assay (choline release from LPC, Hep3B conditioned media); assay type: biochemical; details: ATX activity in concentrated conditioned media from Hep3B cells, substrate LPC
dog = dog liver toxicity study
Experimental: In some embodiments, liver toxicity can be assessed in suitable in vivo assays. In some embodiments, liver toxicity is assessed by monitoring any increases in the levels of liver markers ALT, AST, AlkP and bilirubin.

IC50 (human autotaxin) [nM]	Compound	other results
< 500	CCCn1cc(-n2c(Cl)c(Sc3cccc(C(=O)O)c3)c3ccc(Cl)cc32)cn1 [Compound 1-1, 3-((2,6-dichloro-1-(1-propyl-1H-pyrazol-4-yl)-1H-indol-3-yl)thio)benzoic acid]	
< 500	CCCn1cc(-n2c(C#N)c(Sc3cccc(C(=O)O)c3)c3ccc(Cl)cc32)cn1 [Compound 1-3, 3-((6-chloro-2-cyano-1-(1-propyl-1H-pyrazol-4-yl)-1H-indol-3-yl)thio)benzoic acid]	
< 500	CCCn1cc(-n2c(C3CC3)c(Sc3cccc(C(=O)O)c3)c3ccc(Cl)cc32)cn1 [Compound 1-4, 3-((6-chloro-2-cyclopropyl-1-(1-propyl-1H-pyrazol-4-yl)-1H-indol-3-yl)thio)benzoic acid]	
< 500	CCCn1cc(-n2c(Cl)c(Sc3cccc(C(=O)O)c3)c3ccc(Cl)c(F)c32)cn1 [Compound 1-7, 3-((2,6-dichloro-7-fluoro-1-(1-propyl-1H-pyrazol-4-yl)-1H-indol-3-yl)thio)benzoic acid]	
< 500	CCCn1cc(-n2c(C3CC3)c(Sc3cccc(C(=O)O)c3)c3ccc(Cl)c(F)c32)cn1 [Compound 1-10, 3-((6-chloro-2-cyclopropyl-7-fluoro-1-(1-propyl-1H-pyrazol-4-yl)-1H-indol-3-yl)thio)benzoic acid]	
	CCCn1cc(-n2c(Cl)c(Sc3cccc(C(=O)O)c3F)c3ccc(Cl)c(F)c32)cn1 [Compound 1-13, 3-((2,6-dichloro-7-fluoro-1-(1-propyl-1H-pyrazol-4-yl)-1H-indol-3-yl)thio)-2-fluorobenzoic acid]	liver markers (dog; dog liver toxicity study, liver markers ALT, AST, AlkP and bilirubin): did not exhibit the same effects; increases in liver markers ALT, AST, AlkP and bilirubin (dog; dosed at 100 mpk for 5 days): no increases in liver markers ALT, AST, AlkP and bilirubin were observed
< 500	CCCn1cc(-n2c(C3CC3)c(Sc3cccc(C(=O)O)c3F)c3ccc(Cl)c(F)c32)cn1 [Compound 1-16, 3-((6-chloro-2-cyclopropyl-7-fluoro-1-(1-propyl-1H-pyrazol-4-yl)-1H-indol-3-yl)thio)-2-fluorobenzoic acid]	
< 500	CCn1cc(-n2c(Cl)c(Sc3cccc(C(=O)O)c3F)c3ccc(Cl)c(F)c32)cn1 [Compound 1-31, 3-((2,6-dichloro-1-(1-ethyl-1H-pyrazol-4-yl)-7-fluoro-1H-indol-3-yl)thio)-2-fluorobenzoic acid]	
< 500	Cn1cc(-n2c(Cl)c(Sc3cccc(C(=O)O)c3F)c3ccc(Cl)c(F)c32)cn1 [Compound 1-49, 3-((2,6-dichloro-7-fluoro-1-(1-methyl-1H-pyrazol-4-yl)-1H-indol-3-yl)thio)-2-fluorobenzoic acid]	
< 500	CCn1cc(-n2c(C3CC3)c(Sc3cccc(C(=O)O)n3)c3ccc(Cl)c(F)c32)cn1 [Compound 1-92, 6((6-chloro-2-cyclopropyl-1-(1-ethyl-1H-pyrazol-4-yl)-7-fluoro-1H-indol-3-yl)thio)picolinic acid]	
< 500	O=C(O)c1cccc(Sc2c(C3CC3)n(-c3cn[nH]c3)c3c(F)c(Cl)ccc23)c1F [Compound 1-119, 3-((6-chloro-2-cyclopropyl-7-fluoro-1-(1H-pyrazol-4-yl)-1H-indol-3-yl)thio)-2-fluorobenzoic acid]	
< 500	O=C(O)c1cccc(Sc2c(C3CC3)n(-c3cnn(CCO)c3)c3c(F)c(Cl)ccc23)c1F [Compound 1-120, 3-((6-chloro-2-cyclopropyl-7-fluoro-1-(1-(2-hydroxyethyl)-1H-pyrazol-4-yl)-1H-indol-3-yl)thio)-2-fluorobenzoic acid]	
< 500	NC(=O)OCCn1cc(-n2c(C3CC3)c(Sc3cccc(C(=O)O)c3F)c3ccc(Cl)c(F)c32)cn1 [Compound 1-121, 3-(1-(1-(2-(carbamoyloxy)ethyl)-1H-pyrazol-4-yl)-(6-chloro-2-cyclopropyl-7-fluoro-1H-indol-3-yl)thio)-2-fluorobenzoic acid]	
< 500	NCCn1cc(-n2c(C3CC3)c(Sc3cccc(C(=O)O)c3F)c3ccc(Cl)c(F)c32)cn1 [Compound 1-122, 3-(1-(1-(2-aminoethyl)-1H-pyrazol-4-yl)-(6-chloro-2-cyclopropyl-7-fluoro-1H-indol-3-yl)thio)-2-fluorobenzoic acid]	
< 500	NC(=O)NCCn1cc(-n2c(C3CC3)c(Sc3cccc(C(=O)O)c3F)c3ccc(Cl)c(F)c32)cn1 [Compound 1-123, 3-((6-chloro-2-cyclopropyl-7-fluoro-1-(1-(2-ureidoethyl)-1H-pyrazol-4-yl)-1H-indol-3-yl)thio)-2-fluorobenzoic acid]	
< 500	O=C(O)CCCn1cc(-n2c(C3CC3)c(Sc3cccc(C(=O)O)c3F)c3ccc(Cl)c(F)c32)cn1 [Compound 1-124, 3-(1-(1-(3-carboxypropyl)-1H-pyrazol-4-yl)-(6-chloro-2-cyclopropyl-7-fluoro-1H-indol-3-yl)thio)-2-fluorobenzoic acid]	
< 500	NC(=O)CCCn1cc(-n2c(C3CC3)c(Sc3cccc(C(=O)O)c3F)c3ccc(Cl)c(F)c32)cn1 [Compound 1-125, 3-(1-(1-(4-amino-4-oxobutyl)-1H-pyrazol-4-yl)-(6-chloro-2-cyclopropyl-7-fluoro-1H-indol-3-yl)thio)-2-fluorobenzoic acid]	
< 500	O=C(O)c1cccc(Sc2c(C3CC3)n(-c3cnn(CC(F)(F)F)c3)c3c(F)c(Cl)ccc23)c1F [Compound 1-126, 3-((6-chloro-2-cyclopropyl-7-fluoro-1-(1-(2,2,2-trifluoroethyl)-1H-pyrazol-4-yl)-1H-indol-3-yl)thio)-2-fluorobenzoic acid]	
< 500	NCCCCCCn1cc(-n2c(C3CC3)c(Sc3cccc(C(=O)O)c3F)c3ccc(Cl)c(F)c32)cn1 [Compound 1-128, 3-(1-(1-(6-aminohexyl)-1H-pyrazol-4-yl)-(6-chloro-2-cyclopropyl-7-fluoro-1H-indol-3-yl)thio)-2-fluorobenzoic acid]	
< 500	O=C(O)c1cccc(Sc2c(Cl)n(-c3cccnc3)c3c(F)c(Cl)ccc23)c1F [Compound 2-1, 3-((2,6-dichloro-7-fluoro-1-(pyridin-3-yl)-1H-indol-3-yl)thio)-2-fluorobenzoic acid]	
< 500	O=C(O)c1cccc(Sc2c(Br)n(-c3cccnc3)c3c(F)c(Cl)ccc23)c1F [Compound 2-2, 3-((2-bromo-6-chloro-7-fluoro-1-(pyridin-3-yl)-1H-indol-3-yl)thio)-2-fluorobenzoic acid]	
< 500	O=C(O)c1cccc(Sc2c(C3CC3)n(-c3cccnc3)c3c(F)c(Cl)ccc23)c1F [Compound 2-3, 3-((6-chloro-2-cyclopropyl-7-fluoro-1-(pyridin-3-yl)-1H-indol-3-yl)thio)-2-fluorobenzoic acid]	
< 500	CCn1cc(-n2c(C3CC3)c(Sc3cccc(CC(=O)O)c3F)c3ccc(Cl)c(F)c32)cn1 [Compound 2-7, 2-(3-((6-chloro-2-cyclopropyl-1-(1-ethyl-1H-pyrazol-4-yl)-7-fluoro-1H-indol-3-yl)thio)-2-fluorophenyl)acetic acid]	

Compound	IC50 (human autotaxin) [nM]	other results
3-((6-chloro-2-cyclopropyl-1-(1-(6-(3-(3′,6′-dihydroxy-3-oxo-3H-spiro[isobenzofuran-1,9′-xanthen]-5-yl)ureido)hexyl)-1H-pyrazol-4-yl)-7-fluoro-1H-indol-3-yl)thio)-2-fluorobenzoic acid [Compound 1-131]	< 500	
